Results from PMC7900168, “Nanocomposite-based dual enzyme system for broad-spectrum scavenging of reactive oxygen species” (Scientific Reports, 2021).

Tested on: T1, horseradish peroxidase (HRP)
T1 construct: gene PRXC1A; native enzyme, free in solution
Assay: guaiacol oxidation assay, spectrophotometric, Michaelis-Menten fit
Format: biochemical, Armoracia rusticana
Conditions: native free enzyme; co-substrate hydrogen peroxide
Source text: guaiacol oxidation assay, spectrophotometric, Michaelis-Menten fit on horseradish peroxidase (HRP)

## COc1ccccc1O [guaiacol]
  Km: 1560 ± 80 µM
